From ChEMBL document CHEMBL1201862, “PubChem BioAssay data set” (2004)
The source made the active and inactive calls.

Columns and labels:
[1] = target: T1, Histone-lysine N-methyltransferase NSD2 (Homo sapiens, UniProt O96028); assay type: biochemical
T1 sequence (O96028 whole entry): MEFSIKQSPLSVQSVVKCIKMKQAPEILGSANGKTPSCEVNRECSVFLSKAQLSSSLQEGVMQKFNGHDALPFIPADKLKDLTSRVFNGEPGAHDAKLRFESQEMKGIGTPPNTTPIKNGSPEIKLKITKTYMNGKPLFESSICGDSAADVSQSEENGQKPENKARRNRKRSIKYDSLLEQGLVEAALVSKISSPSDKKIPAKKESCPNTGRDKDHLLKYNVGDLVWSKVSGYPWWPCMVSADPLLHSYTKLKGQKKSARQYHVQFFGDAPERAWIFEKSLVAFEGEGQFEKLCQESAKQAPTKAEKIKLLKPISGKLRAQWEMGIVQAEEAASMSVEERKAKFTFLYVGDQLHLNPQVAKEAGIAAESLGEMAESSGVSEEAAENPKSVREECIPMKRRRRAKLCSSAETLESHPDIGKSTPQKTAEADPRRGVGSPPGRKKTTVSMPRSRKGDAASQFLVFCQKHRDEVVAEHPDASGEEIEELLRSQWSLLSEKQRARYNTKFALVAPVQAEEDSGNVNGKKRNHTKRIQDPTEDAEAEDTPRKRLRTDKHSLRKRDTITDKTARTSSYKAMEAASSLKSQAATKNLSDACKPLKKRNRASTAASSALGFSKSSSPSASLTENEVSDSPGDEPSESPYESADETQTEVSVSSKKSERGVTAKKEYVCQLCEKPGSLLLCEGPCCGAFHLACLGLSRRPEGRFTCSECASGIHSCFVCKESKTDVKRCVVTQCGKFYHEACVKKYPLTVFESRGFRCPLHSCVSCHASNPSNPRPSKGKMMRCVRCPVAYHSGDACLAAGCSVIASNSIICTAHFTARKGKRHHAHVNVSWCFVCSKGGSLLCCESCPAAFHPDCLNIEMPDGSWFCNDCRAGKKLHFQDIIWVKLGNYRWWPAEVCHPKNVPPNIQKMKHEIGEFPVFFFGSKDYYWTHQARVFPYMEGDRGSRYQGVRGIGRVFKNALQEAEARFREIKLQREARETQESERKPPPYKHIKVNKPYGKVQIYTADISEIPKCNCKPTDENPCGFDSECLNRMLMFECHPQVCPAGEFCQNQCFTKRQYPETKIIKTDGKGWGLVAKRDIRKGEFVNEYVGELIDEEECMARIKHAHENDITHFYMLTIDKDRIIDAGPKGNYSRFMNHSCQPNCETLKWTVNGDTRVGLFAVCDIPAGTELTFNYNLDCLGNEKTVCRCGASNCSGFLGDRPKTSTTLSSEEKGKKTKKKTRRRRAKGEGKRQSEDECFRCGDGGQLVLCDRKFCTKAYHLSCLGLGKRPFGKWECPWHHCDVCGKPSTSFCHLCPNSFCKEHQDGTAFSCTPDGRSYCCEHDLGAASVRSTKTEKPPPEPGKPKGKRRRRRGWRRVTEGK

[2] = target: T2, Sentrin-specific protease 8 (Homo sapiens, UniProt Q96LD8); assay type: functional
T2 sequence (Q96LD8 whole entry): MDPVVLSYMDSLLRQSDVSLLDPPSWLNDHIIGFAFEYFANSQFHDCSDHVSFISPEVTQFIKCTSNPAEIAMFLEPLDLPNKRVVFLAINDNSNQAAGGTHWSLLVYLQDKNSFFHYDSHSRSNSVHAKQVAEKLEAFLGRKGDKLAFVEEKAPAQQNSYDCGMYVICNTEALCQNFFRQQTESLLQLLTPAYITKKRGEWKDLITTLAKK

[3] = target: T2, Sentrin-specific protease 8; assay type: functional; remark: listed apart in the source
[4] = cells; assay type: functional, cell-based
[5] = cells; assay type: functional, cell-based; remark: listed apart in the source
[6] = target: DNA repair and recombination protein RAD54-like (Homo sapiens, UniProt Q92698); assay: inhibitors of human RAD54 branch migration, confirmation, biochemical, fluorescence, cherry-picked samples, dose series (AID 651657); assay type: functional
DNA repair and recombination protein RAD54-like, sequence (Q92698 whole entry): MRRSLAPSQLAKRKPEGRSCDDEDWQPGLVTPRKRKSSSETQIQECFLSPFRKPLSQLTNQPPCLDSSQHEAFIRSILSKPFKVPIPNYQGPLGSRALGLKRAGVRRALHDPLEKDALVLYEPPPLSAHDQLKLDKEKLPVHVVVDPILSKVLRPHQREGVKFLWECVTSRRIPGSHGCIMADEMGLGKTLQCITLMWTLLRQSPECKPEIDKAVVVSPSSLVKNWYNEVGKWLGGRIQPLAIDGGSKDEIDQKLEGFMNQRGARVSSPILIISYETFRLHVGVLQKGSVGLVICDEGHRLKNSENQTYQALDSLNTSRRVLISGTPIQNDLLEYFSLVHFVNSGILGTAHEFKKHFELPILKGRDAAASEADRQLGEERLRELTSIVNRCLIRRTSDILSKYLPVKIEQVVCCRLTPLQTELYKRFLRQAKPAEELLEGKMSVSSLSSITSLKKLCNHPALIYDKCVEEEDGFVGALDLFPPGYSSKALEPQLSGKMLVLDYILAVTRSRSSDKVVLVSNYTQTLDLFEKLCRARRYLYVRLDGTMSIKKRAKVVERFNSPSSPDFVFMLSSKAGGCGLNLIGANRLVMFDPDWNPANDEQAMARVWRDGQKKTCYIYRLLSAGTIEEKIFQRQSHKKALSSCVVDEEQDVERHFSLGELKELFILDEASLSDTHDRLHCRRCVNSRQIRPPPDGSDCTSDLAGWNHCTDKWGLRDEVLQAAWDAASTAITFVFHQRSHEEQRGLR

[7] = target: 5-hydroxytryptamine receptor 2A (Mus musculus, UniProt P35363); assay type: functional, cell-based;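 also: CHO-K1 cells with tagged receptor and beta-arrestin; agonist potency measured as compound-induced activation of the receptor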
5-hydroxytryptamine receptor 2A, sequence (P35363 whole entry): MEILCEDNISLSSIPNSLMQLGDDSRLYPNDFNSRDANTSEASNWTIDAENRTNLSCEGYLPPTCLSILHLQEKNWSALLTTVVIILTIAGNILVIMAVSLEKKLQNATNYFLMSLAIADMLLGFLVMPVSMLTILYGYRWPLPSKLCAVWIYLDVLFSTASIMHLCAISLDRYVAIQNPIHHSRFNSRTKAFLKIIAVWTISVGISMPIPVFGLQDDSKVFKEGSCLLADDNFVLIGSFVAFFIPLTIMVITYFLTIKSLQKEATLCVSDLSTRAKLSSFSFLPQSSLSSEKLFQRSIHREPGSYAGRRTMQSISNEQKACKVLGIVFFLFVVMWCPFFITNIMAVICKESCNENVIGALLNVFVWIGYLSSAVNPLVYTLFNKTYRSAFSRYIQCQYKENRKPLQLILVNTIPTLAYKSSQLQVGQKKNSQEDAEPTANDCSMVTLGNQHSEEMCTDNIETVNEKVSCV

[8] = target: Mu-type opioid receptor (Homo sapiens, UniProt P35372); assay type: functional, cell-based;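 also: U2OS cells with beta-arrestin recruitment to OPRM1 by beta-gal complementation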
Mu-type opioid receptor, sequence (P35372 whole entry): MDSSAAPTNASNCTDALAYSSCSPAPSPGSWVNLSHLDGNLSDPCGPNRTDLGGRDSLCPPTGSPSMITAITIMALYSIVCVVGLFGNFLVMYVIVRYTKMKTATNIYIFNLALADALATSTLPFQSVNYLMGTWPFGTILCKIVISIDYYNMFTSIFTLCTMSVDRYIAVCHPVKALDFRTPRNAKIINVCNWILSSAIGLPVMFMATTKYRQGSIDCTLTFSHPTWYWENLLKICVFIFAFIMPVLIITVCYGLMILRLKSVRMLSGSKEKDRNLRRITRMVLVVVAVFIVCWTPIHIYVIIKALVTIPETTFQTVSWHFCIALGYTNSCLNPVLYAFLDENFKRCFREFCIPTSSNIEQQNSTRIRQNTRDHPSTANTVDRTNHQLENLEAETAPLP

[9] = system: INS1; assay: beta cell apoptosis inhibitors, cytokine rescue, dose response, luminescence, retest (AID 449756); assay type: functional, cell-based; details: Rattus norvegicus;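 also: cell death triggered by IL-1 beta plus TNF-alpha plus IFN-gamma mixture; protective hits raise ATP signal compared with cytokine alone wells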
[10] = target: Cytochrome P450 2C9 (Homo sapiens, UniProt P11712)
Cytochrome P450 2C9, sequence (P11712 whole entry): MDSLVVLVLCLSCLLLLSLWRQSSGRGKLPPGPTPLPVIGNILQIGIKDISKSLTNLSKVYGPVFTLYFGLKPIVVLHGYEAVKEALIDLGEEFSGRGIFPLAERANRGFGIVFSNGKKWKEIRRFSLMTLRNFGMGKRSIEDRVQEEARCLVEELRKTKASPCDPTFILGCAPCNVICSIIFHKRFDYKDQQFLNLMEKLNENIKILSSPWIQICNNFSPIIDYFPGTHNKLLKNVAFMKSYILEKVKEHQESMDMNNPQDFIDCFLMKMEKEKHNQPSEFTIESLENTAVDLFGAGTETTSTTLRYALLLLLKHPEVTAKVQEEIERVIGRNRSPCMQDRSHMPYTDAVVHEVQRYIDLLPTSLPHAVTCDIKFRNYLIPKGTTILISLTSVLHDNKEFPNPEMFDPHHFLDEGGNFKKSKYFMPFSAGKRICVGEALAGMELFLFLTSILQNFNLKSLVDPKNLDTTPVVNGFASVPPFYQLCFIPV

[11] = target: T3, Beta-lactamase (Pseudomonas aeruginosa, UniProt Q79MP6); assay: IMP-1 metallo-beta-lactamase inhibitors, dose response, selectivity assay for VIM-2 inhibitor project, biochemical, epi-absorbance (AID 1920)
T3 sequence (Q79MP6 whole entry): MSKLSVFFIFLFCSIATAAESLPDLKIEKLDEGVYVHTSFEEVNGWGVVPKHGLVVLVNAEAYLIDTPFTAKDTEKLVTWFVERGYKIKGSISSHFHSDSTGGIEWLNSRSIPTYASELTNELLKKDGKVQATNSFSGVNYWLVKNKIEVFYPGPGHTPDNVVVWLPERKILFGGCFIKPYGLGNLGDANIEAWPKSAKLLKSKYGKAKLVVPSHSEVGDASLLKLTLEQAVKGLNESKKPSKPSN

[12] = target: T4, Cytochrome P450 1A2 (Homo sapiens, UniProt P05177);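 also: PubChem cytochrome P450 panel assay, CYP1A2 panel member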
T4 sequence (P05177 whole entry): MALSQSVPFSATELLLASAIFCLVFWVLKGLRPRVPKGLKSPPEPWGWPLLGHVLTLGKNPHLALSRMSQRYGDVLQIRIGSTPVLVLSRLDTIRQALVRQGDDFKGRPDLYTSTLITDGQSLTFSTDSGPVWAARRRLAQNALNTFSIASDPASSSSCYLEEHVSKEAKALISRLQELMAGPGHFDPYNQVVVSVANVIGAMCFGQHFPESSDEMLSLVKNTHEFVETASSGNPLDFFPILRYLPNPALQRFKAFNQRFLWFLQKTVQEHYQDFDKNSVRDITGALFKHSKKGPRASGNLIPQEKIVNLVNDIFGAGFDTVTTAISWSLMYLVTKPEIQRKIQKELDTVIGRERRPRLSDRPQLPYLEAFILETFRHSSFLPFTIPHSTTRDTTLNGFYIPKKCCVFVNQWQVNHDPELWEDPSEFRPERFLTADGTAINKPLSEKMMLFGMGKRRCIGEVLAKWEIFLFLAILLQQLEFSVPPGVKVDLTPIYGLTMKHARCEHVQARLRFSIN

[13] = target: T3, Beta-lactamase; assay: […] counterscreen for selective VIM-2 inhibitors: dose response biochemical high throughput screening assay to identify inhibitors of IMP-1 metallo-beta-lactamase.
[14] = target: Beta-lactamase (Salmonella choleraesuis (strain SC-B67), UniProt Q5J463); assay: Epi-absorbance-based counterscreen for selective VIM-2 inhibitors: dose response biochemical high throughput screening assay to identify inhibitors of TEM-1 serine-beta-lactamase.
Beta-lactamase (Salmonella choleraesuis (strain SC-B67), UniProt Q5J463), sequence (Q5J463 whole entry): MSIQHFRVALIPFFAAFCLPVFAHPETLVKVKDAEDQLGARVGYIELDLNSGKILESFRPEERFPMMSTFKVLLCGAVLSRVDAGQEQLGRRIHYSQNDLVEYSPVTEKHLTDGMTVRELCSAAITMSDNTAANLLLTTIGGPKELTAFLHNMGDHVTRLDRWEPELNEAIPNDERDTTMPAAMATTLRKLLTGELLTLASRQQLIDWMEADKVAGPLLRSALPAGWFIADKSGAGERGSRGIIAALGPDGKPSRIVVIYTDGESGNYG

[15] = target: Ras and Rab interactor 1/Tyrosine-protein kinase ABL1 (Homo sapiens, UniProt P00519+Q13671); assay type: functional;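 also: biochemical TR-FRET dose-response test measuring inhibition of binding between Rin1 and Abl proteins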
Ras and Rab interactor 1/Tyrosine-protein kinase ABL1, sequence (P00519 whole entry): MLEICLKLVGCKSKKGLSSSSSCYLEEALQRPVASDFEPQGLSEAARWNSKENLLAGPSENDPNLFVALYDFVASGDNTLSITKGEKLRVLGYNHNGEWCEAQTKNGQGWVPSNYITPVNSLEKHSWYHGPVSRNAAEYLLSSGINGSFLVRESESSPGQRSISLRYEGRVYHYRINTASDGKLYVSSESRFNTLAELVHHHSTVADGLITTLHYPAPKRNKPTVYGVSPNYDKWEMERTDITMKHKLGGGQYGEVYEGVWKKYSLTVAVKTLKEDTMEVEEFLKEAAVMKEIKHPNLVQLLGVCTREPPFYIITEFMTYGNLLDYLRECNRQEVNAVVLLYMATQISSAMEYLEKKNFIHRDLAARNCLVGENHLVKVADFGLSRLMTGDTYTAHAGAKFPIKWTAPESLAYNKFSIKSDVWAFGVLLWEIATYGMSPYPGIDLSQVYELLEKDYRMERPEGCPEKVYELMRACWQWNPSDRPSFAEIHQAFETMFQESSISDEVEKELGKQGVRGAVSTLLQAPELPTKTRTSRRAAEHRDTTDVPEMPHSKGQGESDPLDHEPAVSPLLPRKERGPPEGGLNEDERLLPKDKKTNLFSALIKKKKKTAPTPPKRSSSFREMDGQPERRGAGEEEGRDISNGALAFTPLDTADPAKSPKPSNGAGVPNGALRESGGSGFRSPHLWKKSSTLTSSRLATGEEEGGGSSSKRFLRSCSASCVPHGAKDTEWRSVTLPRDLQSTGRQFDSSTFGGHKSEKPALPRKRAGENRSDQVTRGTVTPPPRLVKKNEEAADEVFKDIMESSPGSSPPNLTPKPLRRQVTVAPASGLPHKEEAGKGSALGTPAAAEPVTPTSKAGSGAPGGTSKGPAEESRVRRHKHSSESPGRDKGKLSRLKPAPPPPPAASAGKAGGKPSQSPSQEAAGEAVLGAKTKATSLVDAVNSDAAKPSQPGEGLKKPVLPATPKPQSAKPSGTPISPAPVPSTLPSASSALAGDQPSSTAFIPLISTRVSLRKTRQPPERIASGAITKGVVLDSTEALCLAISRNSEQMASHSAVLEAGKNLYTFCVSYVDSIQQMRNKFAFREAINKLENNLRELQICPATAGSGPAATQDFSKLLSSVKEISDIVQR
Ras and Rab interactor 1/Tyrosine-protein kinase ABL1, sequence (Q13671 whole entry): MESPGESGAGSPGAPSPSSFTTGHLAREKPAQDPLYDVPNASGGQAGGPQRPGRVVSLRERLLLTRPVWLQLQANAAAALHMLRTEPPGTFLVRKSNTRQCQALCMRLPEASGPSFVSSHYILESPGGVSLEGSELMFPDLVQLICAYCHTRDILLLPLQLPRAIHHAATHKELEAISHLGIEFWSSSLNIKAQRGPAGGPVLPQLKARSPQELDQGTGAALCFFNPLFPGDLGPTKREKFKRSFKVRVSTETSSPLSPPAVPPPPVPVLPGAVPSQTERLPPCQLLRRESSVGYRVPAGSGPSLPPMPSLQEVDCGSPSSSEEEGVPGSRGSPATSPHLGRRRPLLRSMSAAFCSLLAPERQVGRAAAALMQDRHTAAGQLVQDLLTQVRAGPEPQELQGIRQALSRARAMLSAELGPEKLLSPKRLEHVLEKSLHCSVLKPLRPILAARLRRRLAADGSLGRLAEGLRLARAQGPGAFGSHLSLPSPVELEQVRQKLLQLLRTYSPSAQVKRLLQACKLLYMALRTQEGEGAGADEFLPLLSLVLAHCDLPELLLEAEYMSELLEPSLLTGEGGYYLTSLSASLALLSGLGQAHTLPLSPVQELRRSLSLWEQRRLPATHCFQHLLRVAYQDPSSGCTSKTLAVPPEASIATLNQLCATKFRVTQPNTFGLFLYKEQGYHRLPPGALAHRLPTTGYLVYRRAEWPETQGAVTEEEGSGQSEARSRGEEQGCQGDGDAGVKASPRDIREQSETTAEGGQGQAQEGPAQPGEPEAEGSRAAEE

[16] = intracellular Trypanosoma cruzi inhibitors in host cells – cell-based, plate reader, cherry-pick samples, set 3, dose response (AID 651818); assay type: functional;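 also: compounds incubated with infected cells for about four days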

In the case of Cc1n[nH]c(O)c1C(c1ccc(-c2ccc(Cl)cc2)o1)c1c(C)n[nH]c1O, the AC50 [1] is reported as 8.22 µM (active), the IC50 [2] is reported as 12.9 µM (active) and the IC50 [3] is reported as 36.3 µM (active).
For CCCN1CN(CCc2ccccc2)CN=C1S, the EC50 [4] was > 29.9 µM (inactive) and the IC50 [5] was > 29.9 µM (inactive).
For NNC(=O)c1oc2nc(-c3cccs3)cc(-c3ccco3)c2c1N, the AC50 [6] was 16.6 µM (active).
With c1cnc(N2CCN(Cc3c[nH]c4ccccc34)CC2)nc1 the EC50 [7] was 0.424 µM (active), the EC50 [8] was 92.5 µM (inactive) and the AC50 [9] was 4.57 µM (active).
With CCOC(=O)c1[nH]c(C(=O)O)c(CCC(=O)OC)c1C the AC50 [10] was 31.6 µM (inconclusive), the IC50 [11] was > 59.6 µM (inactive) and the AC50 [12] was 0.251 µM (inconclusive). The IC50 [13] was 29.4 µM (inactive) and the IC50 [14] was > 59.6 µM (inactive).
With O=C(Cc1ccc(NC(=O)C2CCN(C(=O)C3CCCC3)CC2)cc1)Nc1cccc(C(=O)N2CCCCC2)c1 the IC50 [15] was 29.2 µM (inactive).
For C[C@@H]1CN([C@@H](C)CO)C(=O)c2cccc(NC(=O)Nc3ccc4c(c3)OCO4)c2O[C@H]1CN(C)Cc1ccc(Oc2ccccc2)cc1, the AC50 [16] was 1.92 µM (active).
In the case of C[C@@H]1CN([C@H](C)CO)C(=O)Cc2cc(NS(=O)(=O)c3ccccc3)ccc2O[C@H]1CN(C)Cc1ccc(Cl)c(Cl)c1, the AC50 [16] is reported as 3.13 µM (active).
